Structures are written as SMILES.

MAP3K10 (human), sequence (Q02779 whole entry, looked up): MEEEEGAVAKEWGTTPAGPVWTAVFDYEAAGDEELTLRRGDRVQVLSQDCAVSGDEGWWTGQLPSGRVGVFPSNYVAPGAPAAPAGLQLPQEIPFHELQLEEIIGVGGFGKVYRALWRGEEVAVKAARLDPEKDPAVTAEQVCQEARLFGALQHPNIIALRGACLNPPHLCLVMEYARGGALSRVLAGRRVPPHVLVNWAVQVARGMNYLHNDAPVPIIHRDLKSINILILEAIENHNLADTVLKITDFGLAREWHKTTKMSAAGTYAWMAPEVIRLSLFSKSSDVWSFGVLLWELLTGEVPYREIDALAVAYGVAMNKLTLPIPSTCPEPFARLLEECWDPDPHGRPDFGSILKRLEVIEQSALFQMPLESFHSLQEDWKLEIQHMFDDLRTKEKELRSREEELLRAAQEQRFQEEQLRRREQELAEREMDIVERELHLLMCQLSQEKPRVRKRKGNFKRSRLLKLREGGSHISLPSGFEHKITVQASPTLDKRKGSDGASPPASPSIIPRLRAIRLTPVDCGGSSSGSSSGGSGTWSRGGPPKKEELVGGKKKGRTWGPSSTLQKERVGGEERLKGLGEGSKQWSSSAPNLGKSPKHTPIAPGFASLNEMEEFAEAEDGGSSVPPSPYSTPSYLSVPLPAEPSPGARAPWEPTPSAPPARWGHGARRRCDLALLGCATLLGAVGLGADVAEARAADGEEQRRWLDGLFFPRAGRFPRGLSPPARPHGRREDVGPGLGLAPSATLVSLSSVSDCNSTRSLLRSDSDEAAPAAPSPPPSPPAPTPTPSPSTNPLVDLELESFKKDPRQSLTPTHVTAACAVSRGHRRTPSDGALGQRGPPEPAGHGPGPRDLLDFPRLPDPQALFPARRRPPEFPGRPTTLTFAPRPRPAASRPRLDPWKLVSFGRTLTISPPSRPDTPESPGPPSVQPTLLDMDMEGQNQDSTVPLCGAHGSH
STK11 (human), sequence (Q15831 whole entry, looked up): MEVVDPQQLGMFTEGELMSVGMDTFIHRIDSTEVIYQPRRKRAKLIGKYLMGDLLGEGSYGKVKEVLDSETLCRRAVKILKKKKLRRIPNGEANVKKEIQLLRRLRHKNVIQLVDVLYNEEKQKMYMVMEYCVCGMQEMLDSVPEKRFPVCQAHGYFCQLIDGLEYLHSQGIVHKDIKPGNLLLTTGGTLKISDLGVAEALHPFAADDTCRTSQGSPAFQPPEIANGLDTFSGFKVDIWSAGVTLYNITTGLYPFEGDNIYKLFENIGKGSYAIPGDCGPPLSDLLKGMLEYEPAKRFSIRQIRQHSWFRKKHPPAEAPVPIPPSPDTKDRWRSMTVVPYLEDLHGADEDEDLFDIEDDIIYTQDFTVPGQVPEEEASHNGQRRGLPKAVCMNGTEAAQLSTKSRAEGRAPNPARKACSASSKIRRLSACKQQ

In the first assay the target is MINK1 (human) (UniProt Q8N4C8). As to the kind of experiment: radiometric filter-binding kinase assay, Kinase HotSpot. To be noted: compound 0.5 µM; ATP 10 µM.
MINK1 (human), sequence (Q8N4C8 whole entry, looked up): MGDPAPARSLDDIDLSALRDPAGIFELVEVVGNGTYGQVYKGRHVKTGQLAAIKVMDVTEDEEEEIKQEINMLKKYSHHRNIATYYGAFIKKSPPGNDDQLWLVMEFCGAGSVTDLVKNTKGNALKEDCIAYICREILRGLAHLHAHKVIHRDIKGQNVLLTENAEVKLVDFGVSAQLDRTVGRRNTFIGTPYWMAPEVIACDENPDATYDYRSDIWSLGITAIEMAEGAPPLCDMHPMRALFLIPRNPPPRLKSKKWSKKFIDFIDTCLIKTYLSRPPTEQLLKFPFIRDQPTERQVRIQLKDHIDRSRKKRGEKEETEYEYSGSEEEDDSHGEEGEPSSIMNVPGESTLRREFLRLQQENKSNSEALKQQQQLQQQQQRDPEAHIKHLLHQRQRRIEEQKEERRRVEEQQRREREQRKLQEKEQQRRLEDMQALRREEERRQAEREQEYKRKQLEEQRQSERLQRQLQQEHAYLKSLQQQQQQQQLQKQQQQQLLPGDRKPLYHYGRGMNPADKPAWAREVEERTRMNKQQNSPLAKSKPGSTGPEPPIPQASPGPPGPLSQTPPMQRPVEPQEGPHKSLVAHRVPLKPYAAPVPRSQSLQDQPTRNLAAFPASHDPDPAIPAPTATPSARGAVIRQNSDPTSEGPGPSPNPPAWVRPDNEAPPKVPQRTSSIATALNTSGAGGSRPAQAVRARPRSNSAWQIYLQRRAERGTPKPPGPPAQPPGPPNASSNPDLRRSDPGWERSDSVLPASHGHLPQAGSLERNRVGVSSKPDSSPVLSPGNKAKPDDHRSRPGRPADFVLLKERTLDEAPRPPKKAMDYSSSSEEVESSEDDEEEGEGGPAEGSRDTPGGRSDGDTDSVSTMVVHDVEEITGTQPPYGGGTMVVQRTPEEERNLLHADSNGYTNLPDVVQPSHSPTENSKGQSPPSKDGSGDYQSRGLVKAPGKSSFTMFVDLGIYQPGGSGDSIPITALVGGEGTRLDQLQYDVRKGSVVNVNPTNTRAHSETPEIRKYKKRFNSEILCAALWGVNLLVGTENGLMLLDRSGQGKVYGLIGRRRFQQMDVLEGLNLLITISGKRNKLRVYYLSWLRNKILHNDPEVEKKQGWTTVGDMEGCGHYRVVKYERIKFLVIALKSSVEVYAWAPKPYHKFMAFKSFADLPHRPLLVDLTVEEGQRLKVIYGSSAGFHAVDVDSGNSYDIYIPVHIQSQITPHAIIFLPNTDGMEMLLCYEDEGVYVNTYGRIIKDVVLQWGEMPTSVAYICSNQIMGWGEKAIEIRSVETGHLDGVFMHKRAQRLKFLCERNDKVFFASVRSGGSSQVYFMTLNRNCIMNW
For the molecule `O=C1NC(=O)/C(=C/c2ccc3c(c2)OC(F)(F)O3)S1`, the residual activity came to 90.1%.

With `N#CC(C#N)=C(N)/C(C#N)=C/c1ccc(O)cc1`, the residual activity came to 97.7%.

With `COc1cc2ncnc(Nc3cccc(Cl)c3)c2cc1OC`, the residual activity came to 83.1%.

The next assay deals with NEK11 (human) (UniProt Q8NG66). The description is as above. To be noted: compound 0.5 µM; ATP 10 µM.
In the case of `O=C1NC(=O)/C(=C/c2ccc3c(c2)OC(F)(F)O3)S1`, the residual activity was found to be 111%.

Take `N#CC(C#N)=C(N)/C(C#N)=C/c1ccc(O)cc1`: the residual activity came to 97.2%.

For the molecule `COc1cc2ncnc(Nc3cccc(Cl)c3)c2cc1OC`, the residual activity came out at 96.9%.

For another assay, the target named is PRKCG (human) (UniProt P05129). The description is as above. To be noted: compound 0.5 µM; ATP 10 µM.
Consider `O=C1NC(=O)/C(=C/c2ccc3c(c2)OC(F)(F)O3)S1`, for which the residual activity came out at 101%.

On to `N#CC(C#N)=C(N)/C(C#N)=C/c1ccc(O)cc1`, for which the residual activity amounted to 105%.

As to `COc1cc2ncnc(Nc3cccc(Cl)c3)c2cc1OC`, the residual activity is 105%.

The next assay deals with CSK (human) (UniProt P41240). The assay is described as above. To be noted: compound 0.5 µM; ATP 10 µM.
With `O=C1NC(=O)/C(=C/c2ccc3c(c2)OC(F)(F)O3)S1`, the residual activity was found to be 88%.

On to `N#CC(C#N)=C(N)/C(C#N)=C/c1ccc(O)cc1`, for which the residual activity stood at 97.6%.

Consider `COc1cc2ncnc(Nc3cccc(Cl)c3)c2cc1OC`, for which the residual activity is 91.1%.

In the next assay the target is CDK9 CCNK (human) (UniProt O75909+P50750). The description is as above. To be noted: compound 0.5 µM; ATP 10 µM.
Consider `O=C1NC(=O)/C(=C/c2ccc3c(c2)OC(F)(F)O3)S1`, for which the residual activity came out at 93.5%.

As to `N#CC(C#N)=C(N)/C(C#N)=C/c1ccc(O)cc1`, the residual activity was found to be 100%.

Turning to `COc1cc2ncnc(Nc3cccc(Cl)c3)c2cc1OC`, the residual activity was found to be 106%.

For a further assay, the target named is MYLK2 (human) (UniProt Q9H1R3). The description is as above. To be noted: compound 0.5 µM; ATP 10 µM.
With `O=C1NC(=O)/C(=C/c2ccc3c(c2)OC(F)(F)O3)S1`, the residual activity is 96.6%.

Take `N#CC(C#N)=C(N)/C(C#N)=C/c1ccc(O)cc1`: the residual activity turned out to be 99.4%.

Regarding `COc1cc2ncnc(Nc3cccc(Cl)c3)c2cc1OC`, the residual activity was found to be 90.1%.

The next assay addresses STK11 (human) (UniProt Q15831). The description is as above. To be noted: compound 0.5 µM; ATP 10 µM.
In the case of `O=C1NC(=O)/C(=C/c2ccc3c(c2)OC(F)(F)O3)S1`, the residual activity was determined as 96.9%.

On to `N#CC(C#N)=C(N)/C(C#N)=C/c1ccc(O)cc1`, for which the residual activity worked out at 96.5%.

Consider `COc1cc2ncnc(Nc3cccc(Cl)c3)c2cc1OC`, for which the residual activity is 96.8%.

Another assay deals with ACVR1 (human) (UniProt Q04771). The assay is described as above. To be noted: compound 0.5 µM; ATP 10 µM.
Take `O=C1NC(=O)/C(=C/c2ccc3c(c2)OC(F)(F)O3)S1`: the residual activity was 97.4%.

As for `N#CC(C#N)=C(N)/C(C#N)=C/c1ccc(O)cc1`, the residual activity was found to be 93.8%.

With `COc1cc2ncnc(Nc3cccc(Cl)c3)c2cc1OC`, the residual activity was 108%.

The next assay deals with BRSK2 (human) (UniProt Q8IWQ3). Described as above. To be noted: compound 0.5 µM; ATP 10 µM.
Regarding `O=C1NC(=O)/C(=C/c2ccc3c(c2)OC(F)(F)O3)S1`, the residual activity was 90.9%.

Regarding `N#CC(C#N)=C(N)/C(C#N)=C/c1ccc(O)cc1`, the residual activity came to 101%.

For `COc1cc2ncnc(Nc3cccc(Cl)c3)c2cc1OC`, the residual activity worked out at 96.7%.

A further assay deals with EPHB1 (human) (UniProt P54762). Described as above. To be noted: compound 0.5 µM; ATP 10 µM.
On to `O=C1NC(=O)/C(=C/c2ccc3c(c2)OC(F)(F)O3)S1`, for which the residual activity came out at 95.6%.

Consider `N#CC(C#N)=C(N)/C(C#N)=C/c1ccc(O)cc1`, for which the residual activity is 88.3%.

Turning to `COc1cc2ncnc(Nc3cccc(Cl)c3)c2cc1OC`, the residual activity was 82.8%.

Another assay has as its target NUAK2 (human) (UniProt Q9H093). The assay is described as above. To be noted: compound 0.5 µM; ATP 10 µM.
Regarding `O=C1NC(=O)/C(=C/c2ccc3c(c2)OC(F)(F)O3)S1`, the residual activity came out at 74.8%.

For the molecule `N#CC(C#N)=C(N)/C(C#N)=C/c1ccc(O)cc1`, the residual activity was 122%.

Consider `COc1cc2ncnc(Nc3cccc(Cl)c3)c2cc1OC`, for which the residual activity was 142%.

The next assay addresses IKBKB (human) (UniProt O14920). The description is as above. To be noted: compound 0.5 µM; ATP 10 µM.
For `O=C1NC(=O)/C(=C/c2ccc3c(c2)OC(F)(F)O3)S1`, the residual activity came out at 96.1%.

For `N#CC(C#N)=C(N)/C(C#N)=C/c1ccc(O)cc1`, the residual activity turned out to be 102%.

Turning to `COc1cc2ncnc(Nc3cccc(Cl)c3)c2cc1OC`, the residual activity was 102%.

The target in a further assay is EPHB4 (human) (UniProt P54760). The assay is described as above. To be noted: compound 0.5 µM; ATP 10 µM.
Take `O=C1NC(=O)/C(=C/c2ccc3c(c2)OC(F)(F)O3)S1`: the residual activity is 100%.

With `N#CC(C#N)=C(N)/C(C#N)=C/c1ccc(O)cc1`, the residual activity was 88.1%.

In the case of `COc1cc2ncnc(Nc3cccc(Cl)c3)c2cc1OC`, the residual activity amounted to 59.7%.

A further assay deals with DYRK2 (human) (UniProt Q92630). The description is as above. To be noted: compound 0.5 µM; ATP 10 µM.
In the case of `O=C1NC(=O)/C(=C/c2ccc3c(c2)OC(F)(F)O3)S1`, the residual activity was found to be 98.6%.

As to `N#CC(C#N)=C(N)/C(C#N)=C/c1ccc(O)cc1`, the residual activity came to 117%.

As to `COc1cc2ncnc(Nc3cccc(Cl)c3)c2cc1OC`, the residual activity is 84.6%.

The target in another assay is MAP2K2 (human) (UniProt P36507). The assay is described as above. To be noted: compound 0.5 µM; ATP 10 µM.
MAP2K2 (human), sequence (P36507 whole entry, looked up): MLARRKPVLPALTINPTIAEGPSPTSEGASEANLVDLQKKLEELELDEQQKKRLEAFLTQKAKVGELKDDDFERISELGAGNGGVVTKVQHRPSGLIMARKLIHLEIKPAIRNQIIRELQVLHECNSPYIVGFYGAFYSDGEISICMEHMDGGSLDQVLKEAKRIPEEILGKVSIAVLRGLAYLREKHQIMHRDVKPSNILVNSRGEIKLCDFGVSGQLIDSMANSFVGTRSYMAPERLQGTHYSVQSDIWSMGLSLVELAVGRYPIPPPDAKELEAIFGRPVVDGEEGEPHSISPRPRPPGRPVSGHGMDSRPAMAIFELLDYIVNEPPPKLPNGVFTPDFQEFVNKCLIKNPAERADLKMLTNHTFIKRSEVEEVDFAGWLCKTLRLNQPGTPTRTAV
`O=C1NC(=O)/C(=C/c2ccc3c(c2)OC(F)(F)O3)S1`: the residual activity was determined as 110%.

Regarding `N#CC(C#N)=C(N)/C(C#N)=C/c1ccc(O)cc1`, the residual activity is 103%.

On to `COc1cc2ncnc(Nc3cccc(Cl)c3)c2cc1OC`, for which the residual activity is 102%.

A further assay concerns the target CDC42BPA (human) (UniProt Q5VT25). The description is as above. To be noted: compound 0.5 µM; ATP 10 µM.
Take `O=C1NC(=O)/C(=C/c2ccc3c(c2)OC(F)(F)O3)S1`: the residual activity amounted to 98.5%.

In the case of `N#CC(C#N)=C(N)/C(C#N)=C/c1ccc(O)cc1`, the residual activity is 96.2%.

Regarding `COc1cc2ncnc(Nc3cccc(Cl)c3)c2cc1OC`, the residual activity turned out to be 82.2%.

Another assay concerns the target MERTK (human) (UniProt Q12866). The description is as above. To be noted: compound 0.5 µM; ATP 10 µM.
`O=C1NC(=O)/C(=C/c2ccc3c(c2)OC(F)(F)O3)S1`: the residual activity was 94.5%.

Turning to `N#CC(C#N)=C(N)/C(C#N)=C/c1ccc(O)cc1`, the residual activity was 93.5%.

Turning to `COc1cc2ncnc(Nc3cccc(Cl)c3)c2cc1OC`, the residual activity stood at 76.9%.

The target of the next assay is TGFBR1 (human) (UniProt P36897). The description is as above. To be noted: compound 0.5 µM; ATP 10 µM.
TGFBR1 (human), sequence (P36897 whole entry, looked up): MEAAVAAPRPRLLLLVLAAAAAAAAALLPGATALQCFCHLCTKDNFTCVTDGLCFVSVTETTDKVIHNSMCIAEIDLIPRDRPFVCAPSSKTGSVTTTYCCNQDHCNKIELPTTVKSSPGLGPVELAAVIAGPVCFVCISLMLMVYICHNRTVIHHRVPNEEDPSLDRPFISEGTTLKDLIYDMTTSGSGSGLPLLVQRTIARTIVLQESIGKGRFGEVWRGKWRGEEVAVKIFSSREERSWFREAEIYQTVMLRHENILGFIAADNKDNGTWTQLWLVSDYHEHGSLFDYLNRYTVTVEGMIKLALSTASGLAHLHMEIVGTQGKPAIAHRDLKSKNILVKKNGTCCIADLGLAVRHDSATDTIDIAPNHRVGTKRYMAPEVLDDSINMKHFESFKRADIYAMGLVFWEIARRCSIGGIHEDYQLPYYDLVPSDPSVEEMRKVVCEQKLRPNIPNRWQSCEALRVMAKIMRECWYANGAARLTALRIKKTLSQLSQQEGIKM
Take `O=C1NC(=O)/C(=C/c2ccc3c(c2)OC(F)(F)O3)S1`: the residual activity worked out at 102%.

With `N#CC(C#N)=C(N)/C(C#N)=C/c1ccc(O)cc1`, the residual activity was determined as 93%.

`COc1cc2ncnc(Nc3cccc(Cl)c3)c2cc1OC`: the residual activity worked out at 100%.

Another assay has as its target TAOK2 (human) (UniProt Q9UL54). Described as above. To be noted: compound 0.5 µM; ATP 10 µM.
For the molecule `O=C1NC(=O)/C(=C/c2ccc3c(c2)OC(F)(F)O3)S1`, the residual activity worked out at 96.9%.

Regarding `N#CC(C#N)=C(N)/C(C#N)=C/c1ccc(O)cc1`, the residual activity worked out at 97.3%.

As to `COc1cc2ncnc(Nc3cccc(Cl)c3)c2cc1OC`, the residual activity worked out at 96.1%.

The next assay has as its target MAP3K10 (human) (UniProt Q02779). The assay is described as above. To be noted: compound 0.5 µM; ATP 10 µM.
With `O=C1NC(=O)/C(=C/c2ccc3c(c2)OC(F)(F)O3)S1`, the residual activity amounted to 91.2%.

On to `N#CC(C#N)=C(N)/C(C#N)=C/c1ccc(O)cc1`, for which the residual activity was 98%.

For `COc1cc2ncnc(Nc3cccc(Cl)c3)c2cc1OC`, the residual activity stood at 101%.

The target of the next assay is INSR (human) (UniProt P06213). Described as above. To be noted: compound 0.5 µM; ATP 10 µM.
INSR (human), sequence (P06213 whole entry, looked up): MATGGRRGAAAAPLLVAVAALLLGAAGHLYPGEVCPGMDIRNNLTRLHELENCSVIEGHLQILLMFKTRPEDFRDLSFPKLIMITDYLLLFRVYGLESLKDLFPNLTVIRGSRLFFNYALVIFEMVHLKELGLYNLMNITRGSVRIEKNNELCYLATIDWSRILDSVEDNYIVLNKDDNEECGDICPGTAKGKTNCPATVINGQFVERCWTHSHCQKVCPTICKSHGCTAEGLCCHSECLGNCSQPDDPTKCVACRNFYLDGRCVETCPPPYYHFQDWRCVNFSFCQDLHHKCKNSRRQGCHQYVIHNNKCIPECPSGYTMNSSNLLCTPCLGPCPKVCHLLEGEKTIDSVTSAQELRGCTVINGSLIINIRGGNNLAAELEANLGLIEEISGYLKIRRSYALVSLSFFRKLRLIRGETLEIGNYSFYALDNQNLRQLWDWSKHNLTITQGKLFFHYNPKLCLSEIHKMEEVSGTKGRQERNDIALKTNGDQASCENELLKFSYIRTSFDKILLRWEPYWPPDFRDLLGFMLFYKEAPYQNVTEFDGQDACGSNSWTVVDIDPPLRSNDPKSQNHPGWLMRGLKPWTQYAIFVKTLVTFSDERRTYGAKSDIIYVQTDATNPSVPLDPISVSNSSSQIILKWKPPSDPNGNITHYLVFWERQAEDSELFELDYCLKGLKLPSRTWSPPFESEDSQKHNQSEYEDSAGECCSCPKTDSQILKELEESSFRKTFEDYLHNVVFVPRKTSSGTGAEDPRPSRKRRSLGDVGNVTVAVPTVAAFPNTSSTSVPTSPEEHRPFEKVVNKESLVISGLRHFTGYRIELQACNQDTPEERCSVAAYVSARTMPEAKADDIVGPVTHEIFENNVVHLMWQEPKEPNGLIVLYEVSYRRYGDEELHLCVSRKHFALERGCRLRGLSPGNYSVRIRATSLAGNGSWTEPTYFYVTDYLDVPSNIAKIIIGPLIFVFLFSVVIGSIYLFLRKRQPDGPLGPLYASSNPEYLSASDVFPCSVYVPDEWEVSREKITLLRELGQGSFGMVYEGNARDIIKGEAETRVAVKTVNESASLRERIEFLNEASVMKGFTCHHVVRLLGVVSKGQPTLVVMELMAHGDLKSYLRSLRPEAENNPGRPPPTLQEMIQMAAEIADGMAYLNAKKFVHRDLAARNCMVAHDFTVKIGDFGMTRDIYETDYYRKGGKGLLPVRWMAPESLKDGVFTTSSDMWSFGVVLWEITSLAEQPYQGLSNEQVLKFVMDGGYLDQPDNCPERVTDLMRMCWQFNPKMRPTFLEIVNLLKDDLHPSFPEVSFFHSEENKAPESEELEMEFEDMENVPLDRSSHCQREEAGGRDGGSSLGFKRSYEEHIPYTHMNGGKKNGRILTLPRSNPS
Consider `O=C1NC(=O)/C(=C/c2ccc3c(c2)OC(F)(F)O3)S1`, for which the residual activity was found to be 106%.

On to `N#CC(C#N)=C(N)/C(C#N)=C/c1ccc(O)cc1`, for which the residual activity is 94.2%.

In the case of `COc1cc2ncnc(Nc3cccc(Cl)c3)c2cc1OC`, the residual activity stood at 77.6%.

These data come from the kinase profiling compilation of Christmann-Franck et al. (2016).
